Holding throughout (type): cell-based, human
One assay deals with HUVEC. Put plainly: S1P-mediated HUVEC tube formation assay. The conditions noted are these: branching points in 3 independent fields at 4× magnification. On the procedure: For the tube formation assay, HUVEC from passage 2-8 are used and are never greater than 70% confluent before harvesting. Cells are prepared for the assay by washing with Herpes Balanced Saline Solution (HBSS from Clonetics) and then trypsinizing with Trypsin/EDTA (0.25 mg/ml, from Clonetics). After approximately 90% of the cells have lifted off the plate, an equal volume of Trypsin Neutralizing Solution (TNS from Clonetics) is added and the cells are collected into a conical tube containing at least 10 ml of EBM-2 (Clonetics)+0.1% BSA (Sigma) media Cells are centrifuged at 1000 rpm for 5 minutes and the supematant is removed and replaced with 5 ml of fresh EBM-2+0.1% BSA. Cells are counted using a hemacytometer and the volume of the cell suspension is adjusted to achieve a concentration of 500,000 cells/ml. Conical tubes are prepared with test compounds at 100 nM, and pertussin toxin (PTx) at 10 ng/ml in each, then 1 ml of the cell suspension is added to each tube. Tubes are then incubated for ½ hour at 37° C., 5% CO2. The migration assay is performed using Fluoro-Blok 24-Multiwell insert Plates coated with fibronectin (8 μm pore size, Falcon #351147) instead of the individual inserts in a 24-well plate. Cells and test compounds are prepared and pre-incubated as described above, then 100 μl is added to each approriate well in the Insert Plate. 300 μl of the EBM-2+2% charcoastripped media without S1P is added to the bottoms of the wells marked for no stimulation (−), and 300 μl of the media containing S1P (500 nM) is added to the bottoms of the wells marked for stimulation (+). The plate is then incubated for 4 hours at 37° C., 5% CO2. […]
After incubation, the plate is read on a Cytofluor II at an excitation of 485 nm and emission of 530 nm. The Fluoro-Blok coating in the inserts allows only the cells that have migrated to the bottom to be counted. […]
Tube formation is quantitated by counting the number of branching points (two independent cords connecting) in 3 independent fields at 4× magnification.

A further assay deals with E-Selectin. The experiment in a line: E-Selectin expression in endothelial cells.
A further assay deals with ERK½ MAP kinases. Put plainly: Western blot, activation of ERK½ MAP kinases in HUVEC. To be noted: HUVEC. The procedure: (§1) Human umbilical vein endothelial cells (HUVEC) are cultured at 37° C. and 5% CO2 in medium M199 supplemented with 20% SCS (HyClone, Logan, Utah), 1 U/ml heparin, 50 μg/ml ECGS, 2 mM glutamine, 100 U/ml penicillin and 0.1 mg/ml streptomycin. Cells are used for experiments up to passage number 5. Short-starved HUVEC are obtained by starving with 1% SCS-containing M199 for 5 h. Recombinant human VEGF165 is obtained from PromoCell (Heidelberg, Germany). Phospho-specific ERK½, p3B kinase polyclonal antibodies, nonphospho ERK½ antibodies and LumiGLO chemiluminescent reagent are from New England BioLabs (Beverly, Mass.), polyclonal IKB antibodies from Santa Cruz Biotechnology (Santa Cruz, Calif.). Peroxidase-conjugated donkey anti-rabbit immunoglobulin G (IgG) and sheep anti-mouse IgG are purchased from Amersham LIFE SCIENCE (Amersham Place, England). lmmobilon-P transfer membranes are products of Millipore (Bedford, Mass.). S is obtained from Sigma Chemical Co.; S1P is from Biomol. Compound A-phosphate stock solution is prepared by the following protocol. Compound A-phosphate is dissolved in methanol tracing with concentrated HCl (0.5 mg Compound A-phosphate in 500 μl of methanol plus 2 μl of HCl). Solvent from the resulting solution is evaporated under vacuum and the residue obtained is redissolved (variant 1) in 0.1% of defatted BSA solution in sterile deionized water (500 μl) or (variant 2) in 0.5% Triton X-100 in deionized water. The resulting stock solutions (2.5 mM) are sonicated and stored at 4° C.
After various treatments, the cells are washed twice with cold PBS, lysed in 100 μl of Laemmli buffer, scraped and heated for 5 min at 95° C. Total cell lysates are separated by SDS-PAGE and transferred to Immobilon-P membrane. The membrane is blocked for 30 minutes with PBS containing 0.1% Tween-20 and 3% skim milk and incubated for 1 hour at RT with a primary antibody diluted in blocking buffer. The membrane obtained is washed three times for 5 minutes with PBS containing 0.1% Tween-20 and incubated with peroxidase-conjugated secondary antibody for 1 hour at RT. After a washing step, the membrane is incubated for 1 minute with ECL reagent and exposed to film as required. For reprobing with another antibody, the membrane is washed twice in PBS, stripped for 30 min at 55° C. with stripping buffer (62.5 mM Tris-HCL, pH 6.8, 2% SDS, 100 mM 2-mercaptoethanol) and washed three times for 5 minutes with PBS at RT. The membrane is stored wet wrapped in SaranWrap at 4° C. after each immunodetection.
Signal transduction via MAP idnases plays a key role in a variety of endothelial cell functions. Treatment of HUVEC with Compound A-phosphate at 0.5 μM may result in transient activation of ERK½ with a peak of phosphorylation/activation at 10 minutes and returning to baseline by 20 minutes (see e.g. FIG. 5). No activation of p38 kinase and JNK½ by Compound A-phosphate is detectable in HUVEC. […] To estimate the possible role of inflammatory/NFκB-dependent program in Compound A-phosphatestimulated bioresponses of endothelial cells, the membranes are reprobed with anti-IκB antibodies. IκB levels are not affected by Compound A-phosphate treatment.
Background: In western blotting, separated proteins are transferred to a membrane and probed.

The subject of another assay is IκB. The experiment in a line: Western blot reprobed with anti-IκB antibodies (NFκB-dependent program). To be noted: endothelial cells. On the procedure:
as §1, with “Solvent from the resulting solution is evaporated under vacuum and the residue obtained is redissolved (variant 1) in 0.1% of defatted BSA solution in sterile deionized water (500 μl) or (variant 2) in 0.5% Triton X-100 in deionized water. The resulting stock solutions (2.5 mM) are sonicated and stored at 4° C.” left out

Bounds are passed on as bounds.

With `CCCCCCCCc1ccc(CCC(N)(CO)COP(=O)(O)O)cc1` (stereo not shown) [Compound A-phosphate], the results for the “Branching Points” value in the assay with HUVEC (treatment + S1P) and in the assay on HUVEC (treatment alone) were 14 ± 7 and 48 ± 15, respectively. Further, the E-Selectin expression result with E-Selectin was “fail to induce”. Further, in the assay with ERK½ MAP kinases (0.5 μM), the “time of ERK½ activation returning to baseline” value was at most 20 min. The “time of peak of ERK½ phosphorylation/activation” value in the assay with ERK½ MAP kinases (0.5 μM, transient activation) was 10 min. Also, in the assay on ERK½ MAP kinases (0.5 versus 2 μM), the “ERK½ activation, dose dependence” value is “dose-dependent manner, showing stronger activity at 2 μM”. The IκB levels result in the assay on IκB is reported as “not affected”.
